Patent publication US20040147788A1, “Stilbene derivatives and their use as aryl hydrocarbon receptor antagonistic ligands” (priority 2002, published 2004)
Several values for one entry are separate records, joined by “and”; a condition that tells them apart may be missing. Equal values may be shown once.

How the values were obtained:
[1] = target: T1, Aryl Hydrocarbon Receptor (AhR) (Oryctolagus cuniculus, UniProt O02747); test: Ligand binding competition assay (Aryl Hydrocarbon Receptor), [3H]TCDD displacement; set-up: species or system female New Zealand rabbit (liver cytosol); settings: for AhR RBA (relative binding affinity): resveratrol = 1
T1 construct: from tissue; host or cells: female New Zealand rabbit liver cytosol
T1 sequence (O02747 1-847): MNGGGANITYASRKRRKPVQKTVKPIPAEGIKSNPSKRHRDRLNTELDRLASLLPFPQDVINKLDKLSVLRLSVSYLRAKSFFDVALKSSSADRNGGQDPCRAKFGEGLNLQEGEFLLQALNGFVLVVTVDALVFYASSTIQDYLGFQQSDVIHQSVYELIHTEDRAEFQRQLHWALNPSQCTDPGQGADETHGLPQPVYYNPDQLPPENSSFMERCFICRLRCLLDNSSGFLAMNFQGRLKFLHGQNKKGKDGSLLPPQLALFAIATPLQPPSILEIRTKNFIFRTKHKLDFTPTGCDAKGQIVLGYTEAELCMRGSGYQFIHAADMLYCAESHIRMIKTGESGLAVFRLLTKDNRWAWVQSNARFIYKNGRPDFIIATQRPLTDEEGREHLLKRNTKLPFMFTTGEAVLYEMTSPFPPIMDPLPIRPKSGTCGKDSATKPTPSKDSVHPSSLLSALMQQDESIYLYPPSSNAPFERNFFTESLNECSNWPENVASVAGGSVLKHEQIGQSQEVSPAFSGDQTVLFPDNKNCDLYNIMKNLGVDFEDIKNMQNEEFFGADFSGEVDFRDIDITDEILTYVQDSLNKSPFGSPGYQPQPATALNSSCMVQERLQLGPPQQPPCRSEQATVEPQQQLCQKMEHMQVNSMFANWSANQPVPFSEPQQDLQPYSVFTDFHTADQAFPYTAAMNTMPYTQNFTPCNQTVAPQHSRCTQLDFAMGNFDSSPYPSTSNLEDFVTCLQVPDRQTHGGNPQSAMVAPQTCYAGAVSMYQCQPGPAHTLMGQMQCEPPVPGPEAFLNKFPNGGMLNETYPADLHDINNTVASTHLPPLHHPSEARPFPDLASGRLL
Method: Ligand binding competition assay (Aryl Hydrocarbon Receptor)
Experiments were conducted exactly as previously described by Savouret et al., (3). Briefly, binding competition was performed using female New Zealand rabbit liver cytosol as the receptor source. The cytosol was prepared at 4° C. in Hepes 20 mM pH 7.6, EDTA 1.5 mM, glycerol 10%, β-mercapto-ethanol 10 mM, with Complete protease cocktail (Roche, Meylan, France) by homogenisation in a Ultra-Turax homogenizer (Bioblock Scientific, Illkirch, France) followed with 20 strokes in a Dounce Homogenizer with the tight pestle. The homogenate was centrifuged 30 min at 20,000 g. The supernatant was centrifuged at 105,000 g for 65 min. The cytosol was aliquoted, snap-frozen in liquid nitrogen and kept at −80° C. Cytosol aliquotes (4.5 ml) were thawed on ice, diluted ten-fold in Hepes 20 mM pH 7.6, 5 mM CaCl2, containing Complete protease cocktail and 10 mM mercapto-ethanol, and recentrifuged 30 min. at 105,000 g. The cleared cytosol dilution was adjusted to 0.85 mg proteins/ml. 930 μl of diluted cytosol were preincubated with the desired amounts of unlabeled competitors in ethanol solutions for 1 hour at 4° C. Subsequently, 2,3,7,8-tetrachloro (1,6-3 H) dibenzo-p-dioxin (28 Ci/mmole) was added at 0.2 nM and incubation continued for 3 hours at 4° C. Non-displaceable binding was assessed by incubating the aliquotes with 70 μl of a 2% activated charcoal suspension in Hepes 20 mM pH 7.6 for 90 minutes at 4° C., followed by centrifugation at 15,000 g for 10 minutes. 500 μl of the supernatants were counted in 5 ml of Ultima Gold cocktail (Packard, Meridien, Conn.) in a Beckman liquid scintillation Counter (45% counting efficiency). Binding competition assays were repeated at least twice for each competitor and each point was performed in triplicate.

[2] = target: T2, Estrogen Receptors extracted from MCF-7 cells (Homo sapiens, UniProt P03372); test: Ligand binding competition assay (Estrogen Receptor), [3H]Estradiol
T2 construct: Estrogen Receptors extracted from MCF-7 cells; endogenous in cells; host or cells: MCF-7 (ATCC) cytosol
T2 sequence (P03372 1-595): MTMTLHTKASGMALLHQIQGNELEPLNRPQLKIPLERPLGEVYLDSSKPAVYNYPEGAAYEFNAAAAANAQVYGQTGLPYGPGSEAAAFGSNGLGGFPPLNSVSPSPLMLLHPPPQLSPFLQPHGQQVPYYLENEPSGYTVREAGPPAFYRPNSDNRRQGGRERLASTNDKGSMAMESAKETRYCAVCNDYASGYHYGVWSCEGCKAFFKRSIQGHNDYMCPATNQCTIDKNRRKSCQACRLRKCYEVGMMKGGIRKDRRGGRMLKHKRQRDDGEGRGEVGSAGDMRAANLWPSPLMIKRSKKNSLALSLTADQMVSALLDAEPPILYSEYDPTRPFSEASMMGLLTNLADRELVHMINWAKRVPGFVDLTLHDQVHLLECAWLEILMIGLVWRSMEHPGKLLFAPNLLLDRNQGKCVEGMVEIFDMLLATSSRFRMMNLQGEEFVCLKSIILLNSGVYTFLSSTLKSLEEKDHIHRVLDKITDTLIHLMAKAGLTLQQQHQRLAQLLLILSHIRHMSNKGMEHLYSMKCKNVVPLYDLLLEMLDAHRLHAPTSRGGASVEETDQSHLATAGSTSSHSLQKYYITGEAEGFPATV
Method: Ligand Binding Competition Assay (Estrogen Receptor)
ER binding experiments were conducted using Estrogen Receptors extracted from MCF-7 cells as previously described (4). Briefly MCF-7 (from ATCC) were grown to 80% confluency in DMEM medium (GiBCO BRL) suplemented with 10% FCS. Cells were then scraped, and washed twice with PBS. After centrifugation for 10 minutes at 1500 rpm, the cells were resuspended in TM buffer (20 mM Tris, HCl pH 7.4; sodium molybdate, 20 mM). Cells were broken by freeze-thaw lysis of the cell pellets in an equal volume of TM buffer. Cytosolic receptors were prepared by a 105.000 g×60 minutes centrifugation at 0° C., and then stored at −80° C. This cytosolic receptor solution was diluted to 60% in TM buffer, and then incubated with the corresponding ligand for 18 hr at 4° C. in a volume of 100 μl with 50 μg of protein and 2 nM of [3H]Estradiol and two concentrations (1 and 10 μM) of unlabeled test ligand. Assays were terminated by loading 65 μl of the incubate on a 1.2 ml Sephadex TM LH-20 column equilibrated with the TM buffer. The flow through was collected and counted for radioactivity in ready safe scintillant (Beckman).

Structure (SMILES) | AhR RBA (relative binding affinity) ([1]; cis-stilbenes) | ER RBA (relative binding affinity) ([2]; cis-stilbenes) | AhR RBA (relative binding affinity) ([1]; trans-stilbenes) | ER RBA (relative binding affinity) ([2]; trans-stilbenes) | melting point | relative binding affinity (RBA) for AhR [1] | affinity for ER [2]
COc1ccc(/C=C\c2cc(F)cc(F)c2)cc1 [Compound 5c, (Z)-1-(4-methoxyphenyl)-2-(3,5-difluorophenyl)-ethene] | 7.2 | N.M | – | – | – | – | –
COc1ccc(/C=C/c2cc(OC)cc(OC)c2)cc1 [Compound 4a, (E)-1-(4-methoxyphenyl)-2-(3,5-dimethoxyphenyl)-ethene] | – | – | 21.0 | 0.03 | – | – | –
Clc1ccc(/C=C/c2cc(Cl)cc(Cl)c2)cc1 [Compound 4b, (E)-1-(4-chlorophenyl)-2-(3,5-dichlorophenyl)-ethene] | – | – | 130.0 | N.M | – | 130.0 | without detectable affinity
COc1ccc(/C=C\c2cc(OC)cc(OC)c2)cc1 [Compound 5a, (Z)-1-(4-methoxyphenyl)-2-(3,5-dimethoxyphenyl)-ethene] | 2.1 | 0.06 | – | – | – | – | –
CCCCOc1ccc(/C=C/c2cc(OC)cc(OC)c2)cc1 [Compound 4h, (E)-1-(4-butoxyphenyl)-2-(3,5-dimethoxyphenyl)-ethene] | – | – | 8.1 | N.M | 54 to 56 °C | – | –
COc1ccc(/C=C/c2cc(Cl)cc(Cl)c2)cc1 [Compound 4j, (E)-1-(4-methoxyphenyl)-2-(3,5-dichlorophenyl)-ethene] | – | – | 112.0 | N.M | 62 to 64 °C | 112.0 | without detectable affinity
COc1cc(/C=C/c2ccc(F)cc2)cc(OC)c1 [Compound 4f, (E)-1-(4-fluorophenyl)-2-(3,5-dimethoxyphenyl)-ethene] | – | – | 32.1 | N.M | – | – | –
Clc1ccc(/C=C\c2cc(Cl)cc(Cl)c2)cc1 [Compound 5b, (Z)-1-(4-chlorophenyl)-2-(3,5-dichlorophenyl)-ethene] | 12.4 | N.M | – | – | – | – | –
Fc1ccc(/C=C/c2cc(F)cc(F)c2)cc1 [Compound 4d, (E)-1-(4-fluorophenyl)-2-(3,5-difluorophenyl)-ethene] | – | – | 39.1 | N.M | 47 to 48 °C and 47 °C | – | –
CCCCOc1ccc(/C=C\c2cc(OC)cc(OC)c2)cc1 [Compound 5h, (Z)-1-(4-butoxyphenyl)-2-(3,5-dimethoxyphenyl)-ethene] | 3.7 | N.M | – | – | – | – | –
CCOc1ccc(/C=C/c2cc(OC)cc(OC)c2)cc1 [Compound 4g, (E)-1-(4-ethoxyphenyl)-2-(3,5-dimethoxyphenyl)-ethene] | – | – | 39.8 | N.M | 54 to 55 °C | – | –

Further lines, results first:

AhR RBA (relative binding affinity) ([1]; cis-stilbenes) | ER RBA (relative binding affinity) ([2]; cis-stilbenes) | AhR RBA (relative binding affinity) ([1]; trans-stilbenes) | ER RBA (relative binding affinity) ([2]; trans-stilbenes) | melting point | relative binding affinity (RBA) for AhR [1] | affinity for ER [2] | Structure (SMILES)
2.6 | N.M | – | – | – | – | – | Fc1ccc(/C=C\c2cc(F)cc(F)c2)cc1 [Compound 5d, (Z)-1-(4-fluorophenyl)-2-(3,5-difluorophenyl)-ethene]
– | – | 791.0 | N.M | 98 to 100 °C | – | – | FC(F)(F)c1ccc(/C=C/c2cc(Cl)cc(Cl)c2)cc1 [Compound 4i, (E)-1-(4-trifluoromethylphenyl)-2-(3,5-dichlorophenyl)-ethene]
10.9 | N.M | – | – | – | – | – | FC(F)(F)c1ccc(/C=C\c2cc(Cl)cc(Cl)c2)cc1 [Compound 5i, (Z)-1-(4-trifluoromethylphenyl)-2-(3,5-dichlorophenyl)-ethene]
– | – | 17.5 | N.M | 108 to 110 °C | – | – | COc1ccc(/C=C/c2cc(F)cc(F)c2)cc1 [Compound 4c, (E)-1-(4-methoxyphenyl)-2-(3,5-difluorophenyl)-ethene]
13.0 | N.M | – | – | – | – | – | COc1ccc(/C=C\c2cc(Cl)cc(Cl)c2)cc1 [Compound 5j, (Z)-1-(4-methoxyphenyl)-2-(3,5-dichlorophenyl)-ethene]
– | – | 52.1 | N.M | 99 to 100 °C | 52.1 | without detectable affinity | FC(F)(F)c1ccc(/C=C/c2cc(C(F)(F)F)cc(C(F)(F)F)c2)cc1 [Compound 4e, (E)-1-(4-trifluoromethylphenyl)-2-(3,5-ditrifluoromethylphenyl)-ethene]
2.5 | N.M | – | – | – | – | – | CCOc1ccc(/C=C\c2cc(OC)cc(OC)c2)cc1 [Compound 5g, (Z)-1-(4-ethoxyphenyl)-2-(3,5-dimethoxyphenyl)-ethene]
1.7 | N.M | – | – | – | – | – | COc1cc(/C=C\c2ccc(F)cc2)cc(OC)c1 [Compound 5f, (Z)-1-(4-fluorophenyl)-2-(3,5-dimethoxyphenyl)-ethene]
2.7 | N.M | – | – | – | – | – | FC(F)(F)c1ccc(/C=C\c2cc(C(F)(F)F)cc(C(F)(F)F)c2)cc1 [Compound 5e, (Z)-1-(4-trifluoromethylphenyl)-2-(3,5-ditrifluoromethylphenyl)-ethene]
